The structures appear in SMILES notation. “Also recorded” adds a separate entry of the source.

The source of these data is patent US5399743A, “Dipeptide derivative and prophylactic or therapeutic agent for bone diseases containing same as active ingredient” (Suntory Limited, priority 1992, dated 1995).

For series [1], the system named is rats. Kind of series: Acute toxicity LD50 after oral administration to rats. The note with it: in 20 hours. The series is classed as in vivo. On the procedure: The compound of the present invention is a low molecular weight dipeptide derivative, so the toxicity is low. For example, the acute toxicity LD50 of the compound 1 shown in Table 1 in 20 hours after oral administration to rats is over 1 g/kg.

Series [2] concerns Rat Hypercalcemia Induced by PTHrp(1-34). Kind of series: Rat hypercalcemia induced by PTHrp(1-34), oral administration. The series is classed as in vivo, Wistar rats. The source says: (§1) The active ingredient of the present invention normalizes the blood calcium concentration in rat hypercalcemia induced by PTHrp(1-34). PTHrp (parathyroid hormone-related protein) is a protein identified as the factor inducing hypercalcemia in humans. The fragment comprised of the 1 to 34th amino acid residues, that is, PTHrp(1-34), is the active type. The PTHrp(1-34) promotes bone resorption in vitro and induces hypercalcemia if administered to rats.
(§2) Using this model, the compound of the present invention was administered to Wistar rats, then PTHrp(1-34) was administered and the blood calcium concentration was measured after one hour after administration. […] That is, the compound of the present invention suppresses hypercalcemia induced by PTHrp(1-34), so is useful as a prophylactic or therapeutic agent for bone diseases.
To Wistar rats (5 weeks old, male, 90 to 110 g, 5 animals in each group), 40 mg/kg body weight of the compounds listed in Table 1 were administered orally. Four hours later, 5 nmole/kg of PTHrp(1-34) was intravenously injected. One hour after the administration of PTHrp(1-34), a blood sample was collected from each animal and the blood calcium concentration was measured by the octocresolphthalein complexone method.
Note that for reference, a similar evaluation was made of L-trans-epoxysuccinyl-L-leucineamide (e-guanide)-butane (E-64) Japanese Unexamined Patent Publication (Kokai) No. 63-284127 and the Z-Phe-Ala-CH2 F described in Japanese Examined Patent Publication (Kokoku) No. 4-1737.

The test system is the same in series [3]. In words: Rat hypercalcemia induced by PTHrp(1-34), subcutaneous administration. The series is classed as in vivo, Wistar rats. The note with it: 40 mg/kg subcutaneously at the back; 2 h later PTHrp(1-34) 5 nmole/kg i.v.; blood 1 h after PTHrp; n = 5; PTHrp-only group 11.28 ± 0.08, untreated 10.68 ± 0.09.
From the text: as §1, §2
In the same way as Example 7, to Wistar rats (5 weeks old, male, 90 to 110 g, 5 animals in each group), 40 mg/kg body weight of the compounds listed in Table 1 were administered subcutaneously at the back. Two hours later, 5 nmole/kg of PTHrp(1-34) was intravenously injected. One hour after the administration of PTHrp(1-34), a blood sample was collected from each animal and the blood calcium concentration was measured by the octocresolphthalein complexone method.

The mark [4] stands for this setting: 40 mg/kg orally; 4 h later PTHrp(1-34) 5 nmole/kg i.v.; blood 1 h after PTHrp; n = 5; PTHrp-only group 11.87 ± 0.14, untreated 11.42 ± 0.14.

Regarding `CCCCC(NC(=O)C(CC(C)C)NC(=O)OCc1ccccc1)C(=O)CF` (stereo not drawn) [Z-Leu-Nle-CH2 F, 3-(N-benzyloxycarbonyl-leucylamide)-1-fluoro-2-heptanone], the “acute toxicity LD50” value in series [1] was “over 1 g/kg”. The “Ca conc. ± standard error (average blood calcium concentration)” value in series [2] (setting [4]) was 11.09 ± 0.14 mg/dL.
Consider `CC(NC(=O)C(Cc1ccccc1)NC(=O)OCc1ccccc1)C(=O)CF` (stereo not drawn) [Z-Phe-Ala-CH2 F, 3-(N-benzyloxycarbonylphenylalanylamide)-1-fluoro-2-butanone], for which the “Ca conc. ± standard error (average blood calcium concentration)” value in series [2] (setting [4]) is 12.02 ± 0.20 mg/dL. Besides, the “effect on rise in blood calcium concentration (in words)” value in series [2] (oral administration, 40 mg/kg, vs group treated with PTHrp(1-34) only; 40 mg/kg) is reported as “did not exhibit an activity; also recorded: did not exhibit any action of normalizing the calcium concentration”.
With `CC(C)C[C@H](NC(=O)[C@H]1O[C@@H]1C(=O)O)C(=O)NCCCCN=C(N)N` (relative stereo) [Example E-64, L-trans-epoxysuccinyl-L-leucineamide (e-guanide)-butane], the “Ca conc. ± standard error (average blood calcium concentration)” value was 10.20 ± 0.09 mg/dL in series [3] and 11.09 ± 0.14 mg/dL in series [2] (setting [4]). Further, the “effect on rise in blood calcium concentration (in words)” value in series [2] (oral administration, 40 mg/kg, vs group treated with PTHrp(1-34) only) is “significantly suppressed the rise in the blood calcium concentration”.
As for `CCCCC(NC(=O)C(CC(C)C)NC(C)=O)C(=O)CF` (stereo not drawn) [Ac-Leu-Nle-CH2 F, 3-(N-acetyl-leucylamide)-1-fluoro-2-heptanone], the “Ca conc. ± standard error (average blood calcium concentration)” value in series [3] is 10.13 ± 0.11 mg/dL; in series [2] (setting [4]) it was 10.49 ± 0.09 mg/dL.
